Columns and labels:
[1] = target: Recombinant wild type LRRK2 protein (Homo sapiens (Human), UniProt Q5S007); test: LRRK2 kinase activity, LanthaScreen TR-FRET assay (wild type); format: biochemical; conditions: LRRKtide 400 nM, 25 μM ATP, 60 min; read-out: LRRK2 WT IC50
Summary of the method: (§1)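 Recombinant human wild-type or G2019S LRRK2 phosphorylated fluorescein-labelled LRRKtide (ERM-based) with ATP and serially diluted compound for 60 min at room temperature.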

[2] = target: Recombinant G2019S-LRRK2 protein (Homo sapiens (Human), UniProt Q5S007, G2019S); test: LRRK2 kinase activity, LanthaScreen TR-FRET assay (G2019S); format: biochemical; conditions: LRRKtide 400 nM, 25 μM ATP, 60 min
Recombinant G2019S-LRRK2 protein, sequence (Q5S007 whole entry G2019S): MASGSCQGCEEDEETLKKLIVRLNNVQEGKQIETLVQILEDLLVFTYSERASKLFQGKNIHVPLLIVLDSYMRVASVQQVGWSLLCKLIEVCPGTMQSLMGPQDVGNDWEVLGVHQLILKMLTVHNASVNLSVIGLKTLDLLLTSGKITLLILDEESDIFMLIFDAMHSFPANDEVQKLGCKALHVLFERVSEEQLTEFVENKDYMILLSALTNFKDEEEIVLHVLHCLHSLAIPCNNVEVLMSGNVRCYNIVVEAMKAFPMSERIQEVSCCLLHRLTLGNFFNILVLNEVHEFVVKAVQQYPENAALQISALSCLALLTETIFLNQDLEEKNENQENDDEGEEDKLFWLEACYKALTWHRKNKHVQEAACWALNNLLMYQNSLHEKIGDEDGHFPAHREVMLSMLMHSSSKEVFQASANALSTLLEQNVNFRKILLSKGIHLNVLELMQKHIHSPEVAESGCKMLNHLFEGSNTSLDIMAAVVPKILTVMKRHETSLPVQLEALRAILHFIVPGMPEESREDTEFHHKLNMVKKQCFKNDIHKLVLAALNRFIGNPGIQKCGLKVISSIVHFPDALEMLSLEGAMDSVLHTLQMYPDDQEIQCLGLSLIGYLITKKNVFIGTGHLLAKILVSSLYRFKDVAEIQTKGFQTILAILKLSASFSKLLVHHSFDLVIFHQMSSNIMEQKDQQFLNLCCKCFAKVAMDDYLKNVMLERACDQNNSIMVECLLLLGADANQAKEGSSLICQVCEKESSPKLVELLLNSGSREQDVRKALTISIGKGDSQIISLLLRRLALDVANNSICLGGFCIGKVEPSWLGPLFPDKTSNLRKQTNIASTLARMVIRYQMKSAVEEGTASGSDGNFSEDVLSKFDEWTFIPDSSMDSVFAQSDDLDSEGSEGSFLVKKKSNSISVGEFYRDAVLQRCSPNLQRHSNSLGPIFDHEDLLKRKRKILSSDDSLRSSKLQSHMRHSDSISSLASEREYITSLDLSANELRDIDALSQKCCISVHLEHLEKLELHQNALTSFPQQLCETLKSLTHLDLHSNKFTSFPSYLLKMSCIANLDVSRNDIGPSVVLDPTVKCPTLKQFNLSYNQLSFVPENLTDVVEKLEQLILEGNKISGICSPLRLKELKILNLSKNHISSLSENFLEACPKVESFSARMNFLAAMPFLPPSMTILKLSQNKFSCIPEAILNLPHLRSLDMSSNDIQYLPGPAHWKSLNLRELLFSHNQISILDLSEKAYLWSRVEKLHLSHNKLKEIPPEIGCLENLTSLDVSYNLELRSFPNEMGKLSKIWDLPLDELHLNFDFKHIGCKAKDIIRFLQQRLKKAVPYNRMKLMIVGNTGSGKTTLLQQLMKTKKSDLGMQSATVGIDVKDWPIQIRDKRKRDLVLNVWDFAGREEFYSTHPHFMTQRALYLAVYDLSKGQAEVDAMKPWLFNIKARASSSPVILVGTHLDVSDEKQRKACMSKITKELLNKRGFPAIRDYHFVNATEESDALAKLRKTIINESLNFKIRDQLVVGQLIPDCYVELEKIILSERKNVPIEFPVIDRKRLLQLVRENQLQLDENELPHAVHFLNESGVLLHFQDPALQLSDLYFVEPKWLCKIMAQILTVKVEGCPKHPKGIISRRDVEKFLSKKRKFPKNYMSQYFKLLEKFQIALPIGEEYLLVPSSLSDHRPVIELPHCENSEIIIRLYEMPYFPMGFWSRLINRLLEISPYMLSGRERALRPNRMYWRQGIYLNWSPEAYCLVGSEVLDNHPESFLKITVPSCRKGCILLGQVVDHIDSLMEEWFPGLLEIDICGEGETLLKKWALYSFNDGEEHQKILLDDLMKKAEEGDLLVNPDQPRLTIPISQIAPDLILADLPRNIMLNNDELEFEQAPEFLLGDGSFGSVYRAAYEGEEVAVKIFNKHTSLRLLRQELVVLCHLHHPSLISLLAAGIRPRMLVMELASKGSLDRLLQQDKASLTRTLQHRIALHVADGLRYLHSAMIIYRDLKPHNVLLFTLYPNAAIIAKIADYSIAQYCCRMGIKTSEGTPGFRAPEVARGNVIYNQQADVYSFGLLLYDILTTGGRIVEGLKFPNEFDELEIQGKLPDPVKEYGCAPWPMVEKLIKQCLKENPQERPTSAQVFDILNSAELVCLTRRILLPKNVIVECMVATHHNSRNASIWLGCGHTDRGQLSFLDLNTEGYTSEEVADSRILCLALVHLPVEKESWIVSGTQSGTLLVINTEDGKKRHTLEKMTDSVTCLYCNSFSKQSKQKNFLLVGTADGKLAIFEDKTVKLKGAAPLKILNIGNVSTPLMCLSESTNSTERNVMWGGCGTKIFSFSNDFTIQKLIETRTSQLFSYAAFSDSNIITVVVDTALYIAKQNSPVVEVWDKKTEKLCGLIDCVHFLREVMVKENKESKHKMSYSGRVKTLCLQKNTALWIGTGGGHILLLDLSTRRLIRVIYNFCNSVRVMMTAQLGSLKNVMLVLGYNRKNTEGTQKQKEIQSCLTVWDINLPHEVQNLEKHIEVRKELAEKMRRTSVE
Summary of the method: as §1

Recombinant wild type LRRK2 protein, sequence (Q5S007 whole entry): as the sequence (Q5S007 whole entry G2019S) above, with S2019G counted along it

Question: With Cc1c(C#N)cnc(C(=O)Nc2ccc3[nH]nc(-c4cn[nH]c4)c3c2)c1C [Example 183, N-(3-(1H-Pyrazol-4-yl)-1H-indazol-5-yl)-5-cyano-3,4-dimethylpicolinamide] as the compound, how does the IC50 [1] read?
Answer: < 0.1 µM

Question: What about the IC50 [2] of the same compound?
Answer: < 0.1 µM

Question: Which IC50 [1] does the source give for Cc1c(C(=O)Nc2ccc3[nH]nc(-c4cnco4)c3c2)nc(Cl)c(C#N)c1C [Example 184, 6-Chloro-5-cyano-3,4-dimethyl-N-(3-(oxazol-5-yl)-1H-indazol-5-yl)picolinamide] here?
Answer: < 0.1 µM

Question: And the IC50 [2]?
Answer: < 0.1 µM

Question: What does the source list for Cc1nc(C(=O)Nc2ccc3[nH]nc(-c4cnn(C(F)F)c4)c3c2)c(C)c(C)c1C#N [Example 185, 5-Cyano-N-(3-(1-(difluoromethyl)-1H-pyrazol-4-yl)-1H-indazol-5-yl)-3,4,6-trimethylpicolinamide]?
Answer: IC50 [1]: < 0.1 µM; IC50 [2]: < 0.1 µM

Question: What does the source list for Cc1c(C#N)cnc(C(=O)Nc2ccc3[nH]nc(-c4ccn(C)c4)c3c2)c1C [Example 186, 5-cyano-3,4-dimethyl-N-(3-(1-methyl-1H-pyrrol-3-yl)-1H-indazol-5-yl)picolinamide]?
Answer: IC50 [1]: < 0.1 µM; IC50 [2]: < 0.1 µM

Question: For Cc1c(C#N)cnc(C(=O)Nc2ccc3[nH]nc(-c4cnn(C)c4)c3c2)c1C [Example 187, 5-Cyano-3,4-dimethyl-N-(3-(1-methyl-1H-pyrazol-4-yl)-1H-indazol-5-yl)picolinamide], which IC50 [1] is on record?
Answer: < 0.1 µM

Question: What about the IC50 [2] of the same compound?
Answer: < 0.1 µM

Question: Which results are given for N#Cc1ccc(F)c(C(=O)Nc2ccc3[nH]nc(-c4cnco4)c3c2)c1F [Example 188, 3-Cyano-2,6-difluoro-N-(3-(oxazol-5-yl)-1H-indazol-5-yl)benzamide]?
Answer: IC50 [1]: < 0.1 µM; IC50 [2]: < 0.1 µM

Question: COc1cc(C#N)ccc1C(=O)Nc1ccc2[nH]nc(-c3cnn(C(F)F)c3)c2c1 [Example 189, 4-Cyano-N-(3-(1-(difluoromethyl)-1H-pyrazol-4-yl)-1H-indazol-5-yl)-2-methoxybenzamide] was tested. Which IC50 [1] did it give?
Answer: < 0.1 µM

Question: What about the IC50 [2] of the same compound?
Answer: < 0.1 µM

Question: For Cc1cc(C#N)cc(F)c1C(=O)Nc1ccc2[nH]nc(-c3cnco3)c2c1 [Example 190, 4-Cyano-2-fluoro-6-methyl-N-(3-(oxazol-5-yl)-1H-indazol-5-yl)benzamide], which IC50 [1] is on record?
Answer: < 0.1 µM

Question: And the IC50 [2]?
Answer: < 0.1 µM

Question: Which IC50 [1] does the source give for Cc1cc(-c2n[nH]c3ccc(NC(=O)c4ncc(C#N)c(C)c4C)cc23)cc(C)n1 [Example 191, 5-Cyano-N-(3-(2,6-dimethylpyridin-4-yl)-1H-indazol-5-yl)-3,4-dimethylpicolinamide] here?
Answer: < 0.1 µM

Question: What about the IC50 [2] of the same compound?
Answer: < 0.1 µM

Question: Which results are given for N#Cc1cccc(C(=O)Nc2ccc3[nH]nc(-c4cnn(C(F)F)c4)c3c2)c1C(F)(F)F [Example 192, 3-Cyano-N-(3-(1-(difluoromethyl)-1H-pyrazol-4-yl)-1H-indazol-5-yl)-2-(trifluoromethyl)benzamide]?
Answer: IC50 [1]: < 0.1 µM; IC50 [2]: < 0.1 µM

Question: How did the IC50 [1] turn out when Cc1ccc(C#N)c(C)c1C(=O)Nc1ccc2[nH]nc(-c3cnn(C(F)F)c3)c2c1 [Example 193, 3-Cyano-N-(3-(1-(difluoromethyl)-1H-pyrazol-4-yl)-1H-indazol-5-yl)-2,6-dimethylbenzamide] was run?
Answer: < 0.1 µM

Question: And the IC50 [2]?
Answer: < 0.1 µM

Question: COc1cc(-c2n[nH]c3ccc(NC(=O)c4c(C)c(C#N)nn4C)cc23)ccn1 [Example 194, 3-Cyano-N-(3-(2-methoxypyridin-4-yl)-1H-indazol-5-yl)-1,4-dimethyl-1H-pyrazole-5-carboxamide] was tested. Which IC50 [1] did it give?
Answer: 0.1 to 1 µM

Question: And the IC50 [2]?
Answer: < 0.1 µM

Question: Which IC50 [1] does the source give for Cc1c(C#N)nn(C)c1C(=O)Nc1ccc2[nH]nc(-c3cnn(C(F)F)c3)c2c1 [Example 195, 3-Cyano-N-(3-(1-(difluoromethyl)-1H-pyrazol-4-yl)-1H-indazol-5-yl)-1,4-dimethyl-1H-pyrazole-5-carboxamide] here?
Answer: < 0.1 µM

Question: What about the IC50 [2] of the same compound?
Answer: < 0.1 µM

Question: What does the source list for Cc1c(C#N)nn(C)c1C(=O)Nc1ccc2[nH]nc(-c3cnoc3)c2c1 [Example 196, 3-Cyano-N-(3-(isoxazol-4-yl)-1H-indazol-5-yl)-1,4-dimethyl-1H-pyrazole-5-carboxamide]?
Answer: IC50 [1]: 0.1 to 1 µM; IC50 [2]: < 0.1 µM

Question: Which results are given for Cc1coc(-c2n[nH]c3ccc(NC(=O)c4ncc(C#N)c(C)c4C)cc23)n1 [Example 197, 5-Cyano-3,4-dimethyl-N-(3-(4-methyloxazol-2-yl)-1H-indazol-5-yl)picolinamide]?
Answer: IC50 [1]: 0.1 to 1 µM; IC50 [2]: < 0.1 µM

Question: For Cc1c(C#N)cnc(C(=O)Nc2ccc3[nH]nc(-c4ncco4)c3c2)c1C [Example 198, 5-Cyano-3,4-dimethyl-N-(3-(oxazol-2-yl)-1H-indazol-5-yl)picolinamide], which IC50 [1] is on record?
Answer: 0.1 to 1 µM

Question: And the IC50 [2]?
Answer: < 0.1 µM

Question: With N#Cc1cccc(C(=O)Nc2ccc3[nH]nc(-c4cnco4)c3c2)c1F [Example 199, 3-Cyano-2-fluoro-N-(3-(oxazol-5-yl)-1H-indazol-5-yl)benzamide] as the compound, how does the IC50 [1] read?
Answer: < 0.1 µM

Question: What about the IC50 [2] of the same compound?
Answer: < 0.1 µM

Question: COc1cc(C#N)ccc1C(=O)Nc1ccc2[nH]nc(-c3cnco3)c2c1 [Example 200, 4-Cyano-2-methoxy-N-(3-(oxazol-5-yl)-1H-indazol-5-yl)benzamide] was tested. Which IC50 [1] did it give?
Answer: < 0.1 µM

Question: And the IC50 [2]?
Answer: < 0.1 µM

Question: What does the source list for COc1cc(C#N)cc(C)c1C(=O)Nc1ccc2[nH]nc(-c3cnn(C(F)F)c3)c2c1 [Example 201, 4-Cyano-N-(3-(1-(difluoromethyl)-1H-pyrazol-4-yl)-1H-indazol-5-yl)-2-methoxy-6-methylbenzamide]?
Answer: IC50 [1]: < 0.1 µM; IC50 [2]: < 0.1 µM

Question: With Cc1nc(C(=O)Nc2ccc3[nH]nc(-c4cnco4)c3c2)c(C)c(C)c1C#N [Example 202, 5-Cyano-3,4,6-trimethyl-N-(3-(oxazol-5-yl)-1H-indazol-5-yl)picolinamide] as the compound, how does the IC50 [1] read?
Answer: < 0.1 µM

Question: And the IC50 [2]?
Answer: < 0.1 µM

Question: With Cc1ccc(C#N)c(F)c1C(=O)Nc1ccc2[nH]nc(-c3cnco3)c2c1 [Example 203, 3-Cyano-2-fluoro-6-methyl-N-(3-(oxazol-5-yl)-1H-indazol-5-yl)benzamide] as the compound, how does the IC50 [1] read?
Answer: < 0.1 µM

Question: What about the IC50 [2] of the same compound?
Answer: < 0.1 µM

Question: For Cc1c(C#N)cnc(C(=O)Nc2ccc3[nH]nc(-c4ccn(C(F)F)n4)c3c2)c1C [Example 204, 5-Cyano-N-(3-(1-(difluoromethyl)-1H-pyrazol-3-yl)-1H-indazol-5-yl)-3,4-dimethylpicolinamide], which IC50 [1] is on record?
Answer: 0.1 to 1 µM

Question: And the IC50 [2]?
Answer: < 0.1 µM

Question: What does the source list for CCOc1cc(-c2n[nH]c3ccc(NC(=O)c4ncc(C#N)c(C)c4C)cc23)ccn1 [Example 205, 5-Cyano-N-(3-(2-ethoxypyridin-4-yl)-1H-indazol-5-yl)-3,4-dimethylpicolinamide]?
Answer: IC50 [1]: < 0.1 µM; IC50 [2]: < 0.1 µM

Question: With N#Cc1cnc(C(=O)Nc2ccc3[nH]nc(-c4cnco4)c3c2)c2c1CCC2 [Example 206, 4-Cyano-N-(3-(oxazol-5-yl)-1H-indazol-5-yl)-6,7-dihydro-5H-cyclopenta[c]pyridine-1-carboxamide] as the compound, how does the IC50 [1] read?
Answer: 1 to 10 µM

Question: And the IC50 [2]?
Answer: < 0.1 µM

Question: For Cc1cnc(-c2n[nH]c3ccc(NC(=O)c4ncc(C#N)c(C)c4C)cc23)o1 [Example 207, 5-Cyano-3,4-dimethyl-N-(3-(5-methyloxazol-2-yl)-1H-indazol-5-yl)picolinamide], which IC50 [1] is on record?
Answer: < 0.1 µM

Question: What about the IC50 [2] of the same compound?
Answer: < 0.1 µM

Question: Which IC50 [1] does the source give for COc1cc(C#N)cc(C)c1C(=O)Nc1ccc2[nH]nc(-c3cnco3)c2c1 [Example 208, 4-Cyano-2-methoxy-6-methyl-N-(3-(oxazol-5-yl)-1H-indazol-5-yl)benzamide] here?
Answer: < 0.1 µM

Question: And the IC50 [2]?
Answer: < 0.1 µM

Question: N#Cc1cccc(C(=O)Nc2ccc3[nH]nc(-c4cnco4)c3c2)c1Cl [Example 209, 2-chloro-3-cyano-N-(3-(oxazol-5-yl)-1H-indazol-5-yl)benzamide] was tested. Which IC50 [1] did it give?
Answer: < 0.1 µM

Question: And the IC50 [2]?
Answer: < 0.1 µM

Question: Which results are given for Cc1nc(C(=O)Nc2ccc3[nH]nc(-c4cnoc4)c3c2)c(C)c(C)c1C#N [Example 210, 5-Cyano-N-(3-(isoxazol-4-yl)-1H-indazol-5-yl)-3,4,6-trimethylpicolinamide]?
Answer: IC50 [1]: < 0.1 µM; IC50 [2]: < 0.1 µM

Question: With COc1c(C#N)cnc(C(=O)Nc2ccc3[nH]nc(-c4cnco4)c3c2)c1C [Example 211, 5-Cyano-4-methoxy-3-methyl-N-(3-(oxazol-5-yl)-1H-indazol-5-yl)picolinamide] as the compound, how does the IC50 [1] read?
Answer: < 0.1 µM

Question: What about the IC50 [2] of the same compound?
Answer: < 0.1 µM

Question: Which IC50 [1] does the source give for N#Cc1cccc(C(=O)Nc2ccc3[nH]nc(-c4cnco4)c3c2)c1OC(F)(F)F [Example 212, 3-Cyano-N-(3-(oxazol-5-yl)-1H-indazol-5-yl)-2-(trifluoromethoxy)benzamide] here?
Answer: < 0.1 µM

Question: And the IC50 [2]?
Answer: < 0.1 µM

Question: Which IC50 [1] does the source give for Cc1c(C(=O)Nc2ccc3[nH]nc(-c4cnco4)c3c2)cc(C#N)c(=O)n1C [Example 213, 5-Cyano-1,2-dimethyl-N-(3-(oxazol-5-yl)-1H-indazol-5-yl)-6-oxo-1,6-dihydropyridine-3-carboxamide] here?
Answer: < 0.1 µM

Question: And the IC50 [2]?
Answer: < 0.1 µM

Question: For C=C(C)c1c(C#N)cccc1C(=O)Nc1ccc2[nH]nc(-c3cnco3)c2c1 [Example 214, 3-Cyano-N-(3-(oxazol-5-yl)-1H-indazol-5-yl)-2-(prop-1-en-2-yl)benzamide], which IC50 [1] is on record?
Answer: < 0.1 µM

Question: And the IC50 [2]?
Answer: < 0.1 µM

Question: Which results are given for Cc1c(C#N)cnc(C(=O)Nc2ccc3[nH]nc(-c4cnn(C5CCN(C)CC5)c4)c3c2)c1C [Example 215, 5-Cyano-3,4-dimethyl-N-(3-(1-(1-methylpiperidin-4-yl)-1H-pyrazol-4-yl)-1H-indazol-5-yl)picolinamide]?
Answer: IC50 [1]: < 0.1 µM; IC50 [2]: < 0.1 µM

Question: Which IC50 [1] does the source give for Cc1c(C(=O)Nc2ccc3[nH]nc(-c4cnoc4)c3c2)nc(Cl)c(C#N)c1C [Example 216, 6-Chloro-5-cyano-N-(3-(isoxazol-4-yl)-1H-indazol-5-yl)-3,4-dimethylpicolinamide] here?
Answer: < 0.1 µM

Question: What about the IC50 [2] of the same compound?
Answer: < 0.1 µM

Question: Cc1c(C#N)cnc(C(=O)Nc2ccc3[nH]nc(-c4cnn(C(C)C)c4)c3c2)c1C [Example 217, 5-Cyano-N-(3-(1-isopropyl-1H-pyrazol-4-yl)-1H-indazol-5-yl)-3,4-dimethylpicolinamide] was tested. Which IC50 [1] did it give?
Answer: < 0.1 µM

Question: And the IC50 [2]?
Answer: < 0.1 µM

Question: How did the IC50 [1] turn out when N#Cc1cnc(C(=O)Nc2ccc3[nH]nc(-c4cnoc4)c3c2)c2c1CCC2 [Example 218, 4-cyano-N-(3-(isoxazol-4-yl)-1H-indazol-5-yl)-6,7-dihydro-5H-cyclopenta[c]pyridine-1-carboxamide] was run?
Answer: 1 to 10 µM

Question: What about the IC50 [2] of the same compound?
Answer: < 0.1 µM

— US11427558B1, “Indazoles and azaindazoles as LRRK2 inhibitors” (ESCAPE Bio, Inc., priority 2019, dated 2022)
